Reference: patent US20220289685A1, “ANTIMALARIAL HEXAHYDROPYRIMIDINE ANALOGUES” (UCB BIOPHARMA SRL, priority 2019, published 2022)
pIC50: −log10 of the molar value. Structures can show the parent of a compound that is named as a salt.

What follows are compounds tested on Plasmodium falciparum 3D7 strain (assay: P. falciparum 3D7 asexual blood stage assay (SYBR green readout)). Conditions: Plasmodium falciparum, 3D7, Erythrocyte, 72 h.
Assay type: cell-based
In short: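 P. falciparum 3D7 in A+ erythrocytes (5% haematocrit, 0.5% parasitaemia) exposed 72 h at 37 °C under 1% O2/3% CO2 to 20-point 1.5-fold titrations, 50,000–15 nM in 0.5% DMSO. SYBR green lysis overnight, fluorescence 485/528 nm; normalized to mefloquine and DMSO, EC50 from biphasic two-site fit.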

Compound	pIC50
Cc1ccnc(C(=O)Nc2cccc([C@]3(C)CC(=O)N([C@@H]4CCO[C@H](C)C4)C(=N)N3)c2Cl)n1 (relative stereo) [Example 78, N-(2-Chloro-3-{(4S)-2-imino-4-methyl-1-[(2R*,4R*)-2-methyl-tetrahydropyran-4-yl]-6-oxo-hexahydropyrimidin-4-yl}phenyl)-4-methylpyrimidine-2-carboxamide hydrochloride]	7.57
COc1ccc(S(C)(=O)=O)cc1C(=O)Nc1cccc([C@]2(C)CC(=O)N([C@@H]3CCO[C@H](C)C3)C(=N)N2)c1Cl (relative stereo) [Example 85, N-(2-Chloro-3-{(4S)-2-imino-4-methyl-1-[(2R*,4R*)-2-methyl-tetrahydropyran-4-yl]-6-oxo-hexahydropyrimidin-4-yl}phenyl)-2-methoxy-5-(methylsulfonyl)-benzamide trifluoroacetic acid salt]	7.12
C[C@@H]1C[C@H](N2C(=N)N[C@](C)(c3cccc(NC(=O)c4cncc(F)c4)c3Cl)CC2=O)CCO1 (relative stereo) [Example 40, N-(2-Chloro-3-{(4S)-2-imino-4-methyl-1-[(2R*,4R*)-2-methyl-tetrahydropyran-4-yl]-6-oxo-hexahydropyrimidin-4-yl]phenyl)-5-fluoropyridine-3-carboxamide trifluoroacetic acid salt]	7.47
Cc1cn(-c2cccc(C(=O)Nc3cccc([C@]4(C)CC(=O)N([C@@H]5CCO[C@H](C)C5)C(=N)N4)c3Cl)c2)cn1 (relative stereo) [Example 110, N-(2-Chloro-3-{(4S)-2-imino-4-methyl-1-[(2R*,4R*)-2-methyl-tetrahydropyran-4-yl]-6-oxo-hexahydropyrimidin-4-yl}phenyl)-3-(4-methylimidazol-1-yl)-benzamide hydrochloride]	6.54

Same assay, conditions: Plasmodium falciparum, Erythrocyte; P. falciparum 3D7 in human erythrocytes, 72 h incubation, SYBR green fluorescence; read-out: IC50

pIC50	Compound
7.74	COc1ccc(F)cc1C(=O)Nc1cccc([C@]2(C)CC(=O)N([C@@H]3CCO[C@H](C)C3)C(=N)N2)c1Cl (relative stereo) [Example 87, N-(2-Chloro-3-{(4S)-2-imino-4-methyl-1-[(2,R*,4R*)-2-methyl-tetrahydropyran-4-yl]-6-oxo-hexahydropyrimidin-4-yl}phenyl)-5-fluoro-2-methoxybenzamide trifluoroacetic acid salt]
8.00	C[C@@H]1C[C@H](N2C(=N)N[C@](C)(c3cccc(NC(=O)c4cccc5c4OCO5)c3Cl)CC2=O)CCO1 (relative stereo) [Example 86, N-(2-Chloro-3-{(4S)-2-imino-4-methyl-1-[(2R*,4R*)-2-methyl-tetrahydropyran-4-yl]-6-oxo-hexahydropyrimidin-4-yl]phenyl)-1,3-benzodioxole-4-carboxamide trifluoroacetic acid salt]
